A value given as a limit tells only on which side of the number the result lay.

The first assay relates to human platelet-rich plasma (PRP). Put plainly: Convulxin-induced aggregation assay (cuvette light transmittance). To be noted: 125-250 ng/mL Convulxin, read-out: IC50, inhibition of convulxin-induced aggregation of platelet rich plasma. The format is cell-based. On the procedure:
For preparation of human platelet-rich plasma (PRP) for aggregation assays, human venous blood was collected from healthy, drug-free volunteers into 0.38% sodium citrate (0.013 M, pH 7.0 final). PRP was prepared by centrifugation of whole blood at 160×g for 20 minutes at room temperature. The PRP layer was removed, transferred to a new tube, and the platelet count was adjusted, if necessary, to achieve a platelet concentration of ˜3×10^8 platelets/mL using platelet-poor plasma (PPP). PPP was prepared by centrifugation of the remaining blood sample (after removal of PRP) for 20 minutes at 800×g. This preparation of PRP may be subsequently used for aggregation assays in either a 96-well plate or standard cuvette aggregometry.
Inhibition of Convulxin-induced aggregation was determined by cuvette light transmittance aggregation assays. Serial dilutions (1:2) of test compounds were prepared in 30% DMSO in a 96-well V-bottom plate (final DMSO concentration in the cuvette was 0.3%). The test compound (5 μl of serial dilutions in DMSO) was preincubated with PRP for 20 minutes prior to initiation of the aggregation reactions, which were performed in a ChronoLog aggregometer by addition of agonist (125-250 ng/mL Convulxin) to 495 μL of PRP at 37° C. The aggregation reaction was recorded for 4 minutes, and the maximum extent of aggregation was determined by the difference in extent of aggregation at baseline, compared to the maximum aggregation that occurred during the 4 minute period of the assay. Inhibition of aggregation was calculated as the maximum aggregation observed in the presence of inhibitor, compared to that in the absence of inhibitor. IC50s were derived by non-linear regression analysis.
On to `c1cc2c(Nc3ccc4cn[nH]c4c3)nc(Nc3ccc(N4CCNCC4)cc3)nc2[nH]1` [Compound 1-2, N4-(1H-indazol-6-yl)-N2-(4-(piperazin-1-yl)phenyl)-7H-pyrrolo[2,3-d]pyrimidine-2,4-diamine], for which the IC50 (as a rule, the concentration needed to halve the response being measured) is at most 50 µM.

Turning to `CC(=O)N1CCN(c2ccc(Nc3nc(Nc4ccc5c(C)n[nH]c5c4)c4cc[nH]c4n3)cc2)CC1` [Compound 2-1, 1-(4-(4-(4-(3-methyl-1H-indazol-6-ylamino)-7H-pyrrolo[2,3-d]pyrimidin-2-ylamino)phenyl)piperazin-1-yl)ethanone], the IC50 was at most 50 µM.

Turning to `Cc1n[nH]c2cc(Nc3nc(Nc4ccc(N5CCNCC5)cc4)nc4[nH]ccc34)ccc12` [Compound 2-2, N4-(3-methyl-1H-indazol-6-yl)-N2-(4-(piperazin-1-yl)phenyl)-7H-pyrrolo[2,3-d]pyrimidine-2,4-diamine], the IC50 was at most 50 µM.

Regarding `CC(=O)N(C)c1ccc(Nc2nc(Nc3ccc4cn[nH]c4c3)c3cc[nH]c3n2)cc1` [Compound 6-1, N-(4-(4-(1H-indazol-6-ylamino)-7H-pyrrolo[2,3-d]pyrimidin-2-ylamino)phenyl)-N-methylacetamide], the half-maximal inhibitory concentration (IC50) was at most 50 µM.

Consider `OC1CCN(c2ccc(Nc3nc(Nc4ccc5cn[nH]c5c4)c4cc[nH]c4n3)cc2)CC1` [Compound 7-1, 1-(4-(4-(1H-indazol-6-ylamino)-7H-pyrrolo[2,3-d]pyrimidin-2-ylamino)phenyl)piperidin-4-ol], for which the IC50 was at most 50 µM.

On to `CS(=O)(=O)N1CCN(c2ccc(Nc3nc(Nc4ccc5cn[nH]c5c4)c4cc[nH]c4n3)cc2)CC1` [Compound 8-1, N4-(1H-indazol-6-yl)-N2-(4-(4-(methylsulfonyl)piperazin-1-yl)phenyl)-7H-pyrrolo[2,3-d]pyrimidine-2,4-diamine], for which the IC50 was at most 50 µM.

Regarding `CS(=O)(=O)N1CCN(c2ccc(Nc3nc(Nc4ccc5cnn(S(C)(=O)=O)c5c4)c4cc[nH]c4n3)cc2)CC1` [Compound 8-2, N4-(1-(methylsulfonyl)-1H-indazol-6-yl)-N2-(4-(4-(methylsulfonyl)piperazin-1-yl)phenyl)-7H-pyrrolo[2,3-d]pyrimidine-2,4-diamine], the half-maximal inhibitory concentration (IC50) was at most 50 µM.

For the molecule `CSc1ccc(Nc2nc(Nc3ccc4cn[nH]c4c3)c3cc[nH]c3n2)cc1` [Compound 10-1, N4-(1H-indazol-6-yl)-N2-(4-(methylthio)phenyl)-7H-pyrrolo[2,3-d]pyrimidine-2,4-diamine], the IC50 is at most 50 µM.

Take `C[S+]([O-])c1ccc(Nc2nc(Nc3ccc4cn[nH]c4c3)c3cc[nH]c3n2)cc1` (stereo not shown) [Compound 10-2, N4-(1H-indazol-6-yl)-N2-(4-(methylsulfinyl)phenyl)-7H-pyrrolo[2,3-d]pyrimidine-2,4-diamine]: the IC50 is at most 50 µM.

As to `NS(=O)(=O)c1ccc(Nc2nc(Nc3ccc4cn[nH]c4c3)c3cc[nH]c3n2)cc1` [Compound 11-1, 4-(4-(1H-indazol-6-ylamino)-7H-pyrrolo[2,3-d]pyrimidin-2-ylamino)benzenesulfonamide], the IC50 was at most 50 µM.

As to `NC(=O)c1ccc(Nc2nc(Nc3ccc4cn[nH]c4c3)c3cc[nH]c3n2)cc1` [Compound 12-1, 4-(4-(1H-indazol-6-ylamino)-7H-pyrrolo[2,3-d]pyrimidin-2-ylamino)benzamide], the IC50 was at most 50 µM.

As for `CN1CCN(c2ccc(Nc3nc(Nc4ccc5cn[nH]c5c4)c4cc[nH]c4n3)cc2)CC1` [Compound 13-1, N4-(1H-indazol-6-yl)-N2-(4-(4-methylpiperazin-1-yl)phenyl)-7H-pyrrolo[2,3-d]pyrimidine-2,4-diamine], the IC50 is at most 50 µM.

With `CC(=O)N1CCN(c2ccc(Nc3nc(Nc4ccc5[nH]ncc5c4)c4cc[nH]c4n3)cc2)CC1` [Compound 14-1, 1-(4-(4-(4-(1H-indazol-5-ylamino)-7H-pyrrolo[2,3-d]pyrimidin-2-ylamino)phenyl)piperazin-1-yl)ethanone], the 50% inhibitory concentration (IC50) was at most 50 µM.

As for `CC(=O)N1CCN(c2ccc(Nc3nc(Nc4ccc5cn[nH]c5c4)c4c(C)c[nH]c4n3)cc2)CC1` [Compound 15-1, 1-(4-(4-(4-(1H-indazol-6-ylamino)-5-methyl-7H-pyrrolo[2,3-d]pyrimidin-2-ylamino)phenyl)piperazin-1-yl)ethanone], the IC50 is at most 50 µM.

For `CC(=O)N(C)c1ccc(Nc2nc(Nc3ccc4nc[nH]c4c3)c3cc[nH]c3n2)cc1` [Compound 17-1, N-(4-(4-(1H-benzo[D]imidazol-6-ylamino)-7H-pyrrolo[2,3-d]pyrimidin-2-ylamino)phenyl)-N-methylacetamide], the IC50 is at most 50 µM.

With `CN(C)C(=O)C1CCN(c2ccc(Nc3nc(Nc4ccc5nc[nH]c5c4)c4cc[nH]c4n3)cc2)CC1` [Compound 18-1, 1-(4-(4-(1H-benzo[d]imidazol-6-ylamino)-7H-pyrrolo[2,3-d]pyrimidin-2-ylamino)phenyl)-N,N-dimethylpiperidine-4-carboxamide], the IC50 is at most 50 µM.

As for `c1cc2c(Nc3ccc4scnc4c3)nc(Nc3ccc4cn[nH]c4c3)nc2[nH]1` [Compound 19-1, N4-(benzo[d]thiazol-5-yl)-N2-(1H-indazol-6-yl)-7H-pyrrolo[2,3-d]pyrimidine-2,4-diamine], the IC50 is at most 50 µM.

In the case of `c1cc2c(Nc3ccc4ncsc4c3)nc(Nc3ccc4cn[nH]c4c3)nc2[nH]1` [Compound 20-1, N4-(benzo[d]thiazol-6-yl)-N2-(1H-indazol-6-yl)-7H-pyrrolo[2,3-d]pyrimidine-2,4-diamine], the IC50 is at most 50 µM.

With `Cn1ncc2ccc(Nc3nc(Nc4ccc(N5CCNCC5)cc4)nc4[nH]ccc34)cc21` [Compound 22-1, N4-(1-methyl-1H-indazol-6-yl)-N2-(4-(piperazin-1-yl)phenyl)-7H-pyrrolo[2,3-d]pyrimidine-2,4-diamine], the IC50 was at most 50 µM.

On to `CC(=O)N1CCN(c2ccc(Nc3nc(Nc4ccc5cnn(C)c5c4)c4cc[nH]c4n3)cc2)CC1` [Compound 22-2, 1-(4-(4-(4-(1-methyl-1H-indazol-6-ylamino)-7H-pyrrolo[2,3-d]pyrimidin-2-ylamino)phenyl)piperazin-1-yl)ethanone], for which the IC50 is at most 50 µM.

As to `Cn1ncc2cc(Nc3nc(Nc4ccc(C(N)=O)cc4)nc4[nH]ccc34)ccc21` [Compound 25-1, 4-(4-(1-methyl-1H-indazol-5-ylamino)-7H-pyrrolo[2,3-d]pyrimidin-2-ylamino)benzamide], the IC50 is at most 50 µM.

In the next assay the test system is human washed platelets. Put plainly: Inhibition of Convulxin-mediated platelet calcium mobilization in vitro. The settings on record: 125 ng/mL Convulxin. Type of assay: cell-based. The procedure:
Inhibition of Convulxin-induced calcium mobilization was determined in human washed platelets using the FLIPR Calcium 3 Assay Kit (Molecular Devices, Sunnyvale, Calif.). For preparation of washed platelets, human venous blood was collected from healthy, drug-free volunteers into ACD (85 mM sodium citrate, 111 mM glucose, 71.4 mM citric acid) containing PGI2 (1.25 mL ACD containing 0.2 μM PGI2 final; PGI2 from Sigma, St. Louis, Mo.). Platelet-rich plasma (PRP) was prepared by centrifugation at 160×g for 20 minutes at room temperature. Washed platelets were prepared by centrifuging PRP for 10 minutes at 730×g and resuspending the platelet pellet in CGS (13 mM sodium citrate, 30 mM glucose, 120 mM NaCl; 2 mL CGS/10 mL original blood volume). The wash in CGS was repeated a second time, the platelets were collected by centrifugation at 730 g for 10 minutes and resuspended at a concentration of 3×10^8 platelets/mL in Hepes-Tyrode's buffer (10 mM Hepes, 138 mM NaCl, 5.5 mM glucose, 2.9 mM KCl, 12 mM NaHCO3, pH 7.4). This platelet suspension was allowed to rest for 45 minutes at room temperature before use in calcium mobilization assays.
For 96-well plate calcium-mobilization experiments, equal volumes of 3×10^8 washed platelets/mL were incubated with equal volumes of Calcium-3 Assay Reagent A resuspended in 1× Hank's Balanced Salt Solution, pH 7.4, 20 mM Hepes buffer. The total reaction volume of 0.2 mL/well included 1.5×10^8/mL washed platelet/Calcium-3 Assay reagent A mix, 10 μM Eptifibatide (Millennium Pharmaceuticals Inc, Cambridge, Mass.) and serial dilutions (1:3) of test compounds in 0.75% DMSO. DMSO alone was added to 1 well of each 8 set to allow for a maximal calcium-mobilization reading. After a 20 minute preincubation at room temperature, the 96-well microplate reader was loaded into the FlexStation (Molecular Devices, Sunnyvale, Calif.). The FlexStation experimental conditions for measuring calcium mobilization were set up using SOFTMax Pro. The settings used were as follows: Fluorescence parameters-assay mode: flex, excitation 485 nm, 525 nM with a cut-off of 515 nM; Parameters—PMT sensitivity-6, pipette height 230 μl, read time 2 minutes and 40 seconds, read intervals 2 seconds, temperature-23-25° C. After 18 seconds of baseline reading, calcium mobilization was initiated by the addition of Convulxin to a final concentration of 125 ng/mL. Inhibition of calcium mobilization was calculated as the maximum response observed in the presence of inhibitor, compared to that in the absence of inhibitor. IC50s were then derived by non-linear regression analysis.
For orientation: A change in cytosolic calcium serves as a functional read-out for many receptors and channels.
On to `c1cc2c(Nc3ccc4cn[nH]c4c3)nc(Nc3ccc(N4CCNCC4)cc3)nc2[nH]1` [Compound 1-2, N4-(1H-indazol-6-yl)-N2-(4-(piperazin-1-yl)phenyl)-7H-pyrrolo[2,3-d]pyrimidine-2,4-diamine], for which the IC50 is under 1 µM.

As to `Cc1n[nH]c2cc(Nc3nc(Nc4ccc(N5CCNCC5)cc4)nc4[nH]ccc34)ccc12` [Compound 2-2, N4-(3-methyl-1H-indazol-6-yl)-N2-(4-(piperazin-1-yl)phenyl)-7H-pyrrolo[2,3-d]pyrimidine-2,4-diamine], the IC50 is under 1 µM.

As to `CC1(C)Oc2ccc(Nc3nc(Nc4ccc5c(c4)NC(=O)C(C)(C)O5)c4cc[nH]c4n3)cc2NC1=O` [Compound 3-1], the IC50 is under 1 µM.

Take `c1cc2c(Nc3ccc4cn[nH]c4c3)nc(Nc3ccc4cn[nH]c4c3)nc2[nH]1` [Compound 4-1, N2,N4-di(1H-indazol-6-yl)-7H-pyrrolo[2,3-d]pyrimidine-2,4-diamine]: the IC50 is under 1 µM.

Regarding `CS(=O)(=O)N1CCN(c2ccc(Nc3nc(Nc4ccc5cn[nH]c5c4)c4cc[nH]c4n3)cc2)CC1` [Compound 8-1, N4-(1H-indazol-6-yl)-N2-(4-(4-(methylsulfonyl)piperazin-1-yl)phenyl)-7H-pyrrolo[2,3-d]pyrimidine-2,4-diamine], the IC50 is under 1 µM.

Turning to `CS(=O)(=O)N1CCN(c2ccc(Nc3nc(Nc4ccc5cnn(S(C)(=O)=O)c5c4)c4cc[nH]c4n3)cc2)CC1` [Compound 8-2, N4-(1-(methylsulfonyl)-1H-indazol-6-yl)-N2-(4-(4-(methylsulfonyl)piperazin-1-yl)phenyl)-7H-pyrrolo[2,3-d]pyrimidine-2,4-diamine], the IC50 was under 1 µM.

For `CC1(C)Oc2ccc(Nc3nc(Nc4ccc5cn[nH]c5c4)nc4[nH]ccc34)cc2NC1=O` [Compound 16-1, 6-(2-(1H-indazol-6-ylamino)-7H-pyrrolo[2,3-d]pyrimidin-4-ylamino)-2,2-dimethyl-2H-benzo[b][1,4]oxazin-3(4H)-one], the half-maximal inhibitory concentration (IC50) is under 1 µM.

For the origin of these results see US7705004B2, “Protein kinase inhibitors” (Portola Pharmaceuticals, Inc., priority 2007, dated 2010).
